“And” between values parts separate entries of the source, which are not always exact repeats. Equal values may be shown once. Marks after values point to notes of the source that are not given here.
Tests used:
[1] = system: MCF-7; assay: Two-dose antiproliferative screening, SRB assay, MCF-7; type: cell-based; settings: triplicates; for Growth Inhibition (%) MCF-7 1 μM Average: 72 h; for inhibition at 1 µM / inhibition at 10 µM: Homo sapiens, MCF7, 72 h; for inhibition at 1 µM: read-out: Growth Inhibition (%) MCF-7 1 μM Average; for inhibition at 10 µM: read-out: Growth Inhibition (%) MCF-7 10 μM Average
Method: MCF-7(breast adenocarcinoma), PC-3 (prostate cancer) and COLO-205 (colorectal cancer) were obtained from Nawah Scientific inc., (Mokatam, Cairo, Egypt). Cells were maintained in Dulbecco’s Modified Eagle’s media (DMEM media) supplemented with […] of streptomycin, 100 units/mL of penicillin and 10% of heat-inactivated fetal bovine serum in humidified, 5% (v/v) CO2 atmosphere at 37 °C.
Cell viability was assessed by the sulforhodamine B (SRB) assay. Aliquots of cell suspension (5 × 10^3 cells, 100 μL) were transferred into 96 well plates and incubated in complete media for 24 h. Cells were treated with another aliquot media (100 μL) containing compounds 3a–f, 4a–f, 6a–f, 7a–f, 9a–b at concentrations of 1 and 10 μM). After 72 h of drug exposure, cells were fixed by replacing media with trichloroacetic acid (TCA, 10%, 150 μL) and incubated at 4 °C for 1 h. The TCA solution was removed, and the cells were washed five times with distilled water. Aliquots of SRB solution (0.4%w/v, 70 μL) were added and incubated in a dark place at room temperature for 10 min. Plates were washed three times with 1% acetic acid and allowed to air dry overnight. Then, a solution of TRIS base and TRIS HCl (TRIS buffer, 10 mM, 150 μL) was added to dissolve protein bound SRB stain. The absorbance was measured at 540 nm using BMGLABTECH®–FLUOstar omega micro-plate reader (Ortenberg, Germany).

[2] = system: A549 cell line; assay: MTT assay for A549 cell line; type: cell-based
Method: MTT assay for A549 cell line. Cell Line cells were obtained from American Type Culture Collection. Cells were cultured using DMEM (Invitrogen/Life Technologies, Carlsbad, CA, USA) supplemented with 10% FBS (Hyclone, Logan, UT, USA), 10 μg/mL of insulin (Sigma, St. Louis, MI, USA), and 1% penicillin-streptomycin. All the other chemicals and reagents were from Sigma (St. Louis, MI, USA) or Invitrogen (Carlsbad, CA, USA). Cells were plated (cells density 1.2–1.8 × 10,000 cells/well) in a volume of 100 µL complete growth medium + 100 μL of the tested compound per well in a 96-well plate for 24 h before the application of MTT assay protocol as reported, Supplementary Materials.
Cell Line cells were obtained from American Type Culture Collection , cells were cultured using DMEM (Invitrogen/Life Technologies) supplemented with 10% FBS (Hyclone,), 10 ug/ml of insulin (Sigma), and 1% penicillin-streptomycin. All of the other chemicals and reagents were from Sigma, or Invitrogen.
Plate cells (cells density 1.2 – 1.8 × 10,000 cells/well) in a volume of 100µl complete growth medium + 100 ul of the tested compound per well in a 96-well plate for 24 hours before the MTT assay .
1. Remove culture medium to a centrifuge tube.
2. Briefly rinse the cell layer with 0.25% (w/v) Trypsin 0.53 mM EDTA solution to remove all traces of serum which contains Trypsin inhibitor.
3. Add 2.0 to 3.0 ml of Trypsin EDTA solution to flask and observe cells under an inverted microscope until cell layer is dispersed (usually within 5 to 15 minutes). […]
waiting for the cells to detach. Cells that are difficult to detach may be placed at 37°C […]
4. Add 6.0 to 8.0 mL of complete growth medium and aspirate cells by gently
5. […]
6. Spectrophotometrically measure absorbance at a wavelength of 570 nm. Measure the background absorbance of multiwell plates at 690 nm and subtract from the […] measurement. Tests performed in multiwell plates can be read using the appropriate type of plate reader or the contents of individual wells may be transferred to appropriate size cuvets for spectrophotometric measurement.

[3] = system: Bax; assay: Bax expression level in COLO-205 (qRT-PCR); type: cell-based, human; settings: COLO-205, 4b 2.34 μM, vs DMSO-treated control
Method: (§1) qRT-PCR was used to assess the […] expression of Bax and Bcl-2. The High Pure RNA Isolation Kit (RNeasy extraction kit, up to 1 × 10^7 cells) was used to isolate total RNA from COLO-205 cells according to the manufacturer's instructions. A Transcriptor First Strand c-DNA Synthesis Kit was used to produce c-DNA from RNA according to the manufacturer's instructions; 10 μL total RNA was used for amplification Specific primers for Bax, Bcl-2, and P53 were used in PCR experiments. A LightCycler 480 PCR Master Mix was used to set up amplification reactions with a reaction volume of 20 uL. TaqMan probes and PCR primers were created and tuned. PCR Primer sequences were as following (Bax [NT], Bax [NT]. Bcl-2 [NT], and Bcl-2 […] dissociation assay was performed to evaluate any problem related to primer unspecific annealing or any secondary structure formation. Data were analyzed using SDS analysis software.

[4] = system: Bcl-2; assay: Bcl-2 expression level in COLO-205 (qRT-PCR); type: cell-based, human
Method: as §1

SMILES | Growth Inhibition (%) MCF-7 1 μM Average [1] | inhibition at 1 µM [1] [%] | inhibition at 10 µM [1] [%] | IC50 ([2]; Homo sapiens, A549) [µM] | IC50 ([2]; listed as 4a (IC261)) [µM] | Bax expression level, fold change [3] | Bcl-2 level, fold change ([4]; COLO-205, 4b 2.34 μM, vs control) | Bcl-2 protein level down-regulation, fold lower than untreated cells ([4]; COLO-205, vs untreated COLO cells) [fold]
COc1cc(OC)c(/C=C2/C(=O)Nc3ccccc32)c(OC)c1 [Compound 4a, (E)-3-(2,4,6-trimethoxybenzylidene)indolin-2-one, reference compound] | 43.49 ^c % | 44 | 58.9 | 28 | 28.4 |  |  | 
COc1cc(OC)c(/C=C2/C(=O)Nc3cc(Cl)ccc32)c(OC)c1 [Compound 4b, (E)-6-chloro-3-(2,4,6-trimethoxybenzylidene)indolin-2-one] | 45.3% | 46 | 59.1 | 9.5 |  | 5.104 fold and 5.10 fold | 0.242 fold and 0.24 fold | 4.16

Source: article PMC8620390, “New Multi-Targeted Antiproliferative Agents: Design and Synthesis of IC261-Based Oxindoles as Potential Tubulin, CK1 and EGFR Inhibitors” (Pharmaceuticals, 2021)
